For series [1] the following is noted: aqueous 50% glycerol solution from Sigma Chemical Co., before dialysis; cited from earlier work.
A short description of series [2]: isocitrate dehydrogenase activity (NADP reduction at 340 nm) after preservation by foam drying. In kind it is biochemical. The protocol: An aqueous 50% glycerol isocitrate dehydrogenase solution from Sigma Chemical Co. containing 59.4 units of activity per ml was dialyzed for 5 hours in 0.1 M TRIS HCl buffer (pH 7.4). The activity of the isocitrate dehydrogenase in the 0.1 M TRIS HCl solution after dialysis was 26±1.8 units per ml. The activity decrease was associated with a decrease in the enzyme concentration because of dilution during the dialysis.
A mixture (100 l) containing 50 l of 50% by weight sucrose solution and 50 l of the isocitrate dehydrogenase suspension in 0.1 M TRIS HCl buffer (pH 7.4) was placed in 1.5 ml plastic tubes and preserved by drying at room temperature. First, the samples were dried for 4 hours under low vacuum (0.2 atm). Second, the samples were boiled during 4 hours under high vacuum (<0.01 atm). During this step, a mechanically stable dry foam was formed in the tubes. Third, the samples were stored during 8 days over DRIERITE under vacuum at room temperature.
After 8 days, the samples were rehydrated with 500 l water. Rehydration of the samples containing dry foams was an easy process that was completed within several seconds. The reconstituted sample was assayed for activity by assaying ability to reduce NADP, measured spectrophotometrically at 340 nm. The reaction mix included: 2 ml 0.1 M TRIS HCl buffer, pH 7.4; 10 l of 0.5% by weight NADP+; 10 l of 10 mM MnSO4; 10 l of 50 mM 1-isocitrate; and 10 l of an isocitrate dehydrogenase solution.

Series [3] in a line: Urokinase activity after foam drying and storage. In kind it is biochemical. The protocol: Freeze-dried samples of Urokinase were rehydrated with 2 ml of 40 wt % sucrose. The solutions were then transferred to 20 ml sterilized glass vials for future preservation by drying. Before drying, the vials were covered with gray slotted rubber stoppers. The vials were dried inside a vacuum chamber. The vials were sitting on the surface of a stainless steel shelf inside the chamber. Before the vacuum was applied the shelf temperature was decreased to 5 C. Then the hydrostatic pressure inside the chamber was decreased to 0.5 Torr. Under such conditions, the suspension boiled for 30 min. […] Visually, under these experimental conditions, stable dry foams were formed inside the vials within 3 hours. After an additional 12 hours of drying at room temperature, the temperature was increased to 45 C for an additional 24 hours. After that the chamber was filled with dry N2 gas, the rubber stoppers were pushed down and the vials were sealed with aluminum crimp seals.
The samples were assayed right after drying and after 30 days of storage at 40 C. After drying the Urokinase, activity was 93% of the initial activity. This decrease was associated with the loss of Urokinase during transfer from initial vials to the vials at which the Urokinase was dried. After 30 days of storage at 40 C the activity was 90%. […]

Series [4] is described as follows: Potency of Amphotericin after foam drying and storage. In kind it is physicochemical. The protocol: Freeze-dried samples of Amphotericin B were rehydrated with 5 ml 40 wt % sucrose per vial. Then the solutions (5 ml) were transferred into 50 ml sterilized glass vials for future preservation by drying. Before drying, the vials were covered with gray butyl slotted rubber stoppers. The vials were dried inside a vacuum chamber. The vials were placed on the surface of a stainless steel shelf inside the chamber. Before the vacuum was applied the shelf temperature was decreased to 5 C. The hydrostatic pressure inside the chamber was decreased to 0.5 Torr. Under such conditions the suspension boiled for 30 min. The temperature of the shelf was then slowly (during 30 min) increased to 25 C. Visually, stable dry foams were formed inside the vials under these experimental conditions within 3 hours. After an additional 12 hours of drying at room temperature, the chamber was filled with the dry N2 gas and the rubber stoppers in a portion of the vials were pushed down. The vials were removed from the chamber and subsequently sealed with aluminum crimped seal. The samples were assayed right after drying and after 30 days of storage at 27.5 and 40 C. The results are shown in Table 1, together with the results obtained in the next experiment.
Another set of freeze-dried samples of Amphotericin B was rehydrated with 5 ml 40 wt % sucrose per vial. The solutions were then transferred into sterilized glass vials for future preservation by drying similar to that described above with additional drying at 45 C for additional 24 hours. After that, the chamber was filled again with the dry N2 gas, the rubber stoppers were pushed down and the vials were sealed. The samples were assayed right after drying and after 30 day of storage at 27.5 and 40 C.

Consider isocitrate dehydrogenase, for which, in series [1], the “activity of isocitrate dehydrogenase solution” value is 59.4 units of activity per ml. The “loss of activity during drying and subsequent storage” value in series [2] (8 days at room temperature) is listed as “no loss of activity”. For the same molecule, in series [2] (dried with sucrose to foam, stored 8 days over DRIERITE under vacuum at room temperature, 100 l sample rehydrated with 500 l water), the activity after rehydration is reported as 2.6±0.2 units/ml. Further, the “activity of isocitrate dehydrogenase after dialysis” value in series [2] (in 0.1 M TRIS HCl (pH 7.4) after 5 hours dialysis) is recorded as 26±1.8 units per ml.
Regarding Urokinase, the “Urokinase activity, % of the initial activity” value is 90% in series [3] (after 30 days of storage at 40 C) and 93% in series [3] (right after drying (40 wt % sucrose foam, up to 45 C)).
In the case of `C[C@@H]1[C@H](O)[C@@H](C)/C=C/C=C/C=C/C=C/C=C/C=C/C=C/[C@H](O[C@@H]2O[C@H](C)[C@@H](O)[C@H](N)[C@@H]2O)C[C@@H]2O[C@](O)(C[C@@H](O)C[C@@H](O)[C@H](O)CC[C@@H](O)C[C@@H](O)CC(=O)O[C@H]1C)C[C@H](O)[C@H]2C(=O)O` [Amphotericin, Amphotericin B], the “Potency of Amphotericin (%)” value in series [4] (Control (printed in column After drying)) is 126%. Besides, in series [4] (Td = 25 C), the “Potency of Amphotericin (%) After 30 days at 27.5 C.” value is on record as 114%, the “Potency of Amphotericin (%) After 30 days at 40 C.” value was 95% and the “Potency of Amphotericin (%) After drying” value is 108%. In series [4] (Td = 45 C), the “Potency of Amphotericin (%) After 30 days at 27.5 C.” value is recorded as 102%, the “Potency of Amphotericin (%) After 30 days at 40 C.” value was found to be 104% and the “Potency of Amphotericin (%) After drying” value was 103%.

The values above are taken from patent US7153472B1, “Preservation and formulation of bioactive materials for storage and delivery in hydrophobic carriers” (priority 2000, dated 2006).
